The text below walks through data of patent US6440965B1, “Substituted pyrimidine derivatives, their preparation and their use in the treatment of neurodegenerative or neurological disorders of the central nervous system” (Krenitsky Pharmaceuticals, Inc., priority 1997, dated 2002).

The first data set has as its system working memory.
Assay: not given
To be noted: mice; cited from earlier work.
For the molecule `O=C(CCn1cnc2c(=O)[nH]cnc21)Nc1ccc(C(=O)O)cc1` [AIT-082, 4[[3-(1,6-dihydro-6-oxo-9-purin-9-yl)-1-oxopropyl]amino]benzoic acid], the “age induced working memory deficits” value was “restore age induced working memory deficits”.

In the next data set the test system is PC-12 cells.
Assay: not given
To be noted: cited from earlier work.
For `O=C(CCn1cnc2c(=O)[nH]cnc21)Nc1ccc(C(=O)O)cc1` [AIT-082, 4[[3-(1,6-dihydro-6-oxo-9-purin-9-yl)-1-oxopropyl]amino]benzoic acid], the “NGF action in cultured PC-12 cells” value is reported as “enhance NGF action”.

Another data set relates to PC12 cells. Put plainly: Screen for NGF-like activity in cultured PC12 cells (neurite outgrowth, potentiation of NGF). It counts as cell-based, rat. To be noted: 2 days incubation, with or without a limiting concentration of NGF. On the procedure: Cultured PC12 cells (rat adrenal pheochromocytoma from ATCC) have receptors for NGF. Responses include promotion of neurite outgrowth and elevation of choline acetyltransferase (ChAT) (L. A. Greene and A. S. Tischler, Cell Neurobiol., 3, 373 (1982)).
The following assay is substantially as described in H L White and P W Scates, Neurochem. Res., 16, 63 (1991). PC12 cells were cultured at 37° C. in DMEM supplemented with fetal bovine serum, horse serum, glutamine, penicillin, streptomycin and non-essential amino acids. Cultures were split 1:4 every 4 or 5 days. Exponentially dividing cells were plated in fresh medium on collagen-coated 12-well plastic dishes. After allowing one day for cell attachment, the medium was replaced with low serum medium, with or without test compounds and also with or without a limiting concentration of NGF, with each condition in triplicate. The medium may contain up to 0.1% ethanol, which was used as a solvent for most compounds being tested. Cells were examined daily for morphological changes using an Olympus IMT-2 inverted research microscope. After 2 days incubation with test compounds, cells and media were transferred to 1.5 mL Eppendorf tubes. Aliquots of 20 uL were reserved for cell counting and viability determination by trypan blue exclusion. The remaining cell suspensions were centrifuged, and the cell pellets were washed once in serum-free medium and finally resuspended in 30 uL of distilled water containing eserine, an inhibitor of acetylcholinesterase. The suspensions were stored at −80° C. until they were assayed for choline acetyltransferase. Compounds are judged NGF-like in this primary screen if they (1) increase the activity of choline acetyltransferase, (2) enhance NGF-stimulated neurite outgrowth or (3) potentiate and appear additive with the action of NGF itself.
Regarding `Nc1ncc(Cc2ccc(Cl)cc2)c(NCCCCO)n1` [2-Amino-4-[2-(2-hydroxyethyl)ethylamino]-5-(4-chlorobenzyl)pyrimidine], the “NGF-like in vitro activity (ChAT increase, enhancement of NGF-stimulated neurite outgrowth and/or potentiation of NGF)” value is reported as “especially potent activities”.

Consider `Nc1ncc(Cc2ccc(Cl)cc2)c(N2CCC(O)CC2)n1` [2-Amino-5-(4-chlorobenzyl)-4-(4-hydroxypiperidino)pyrimidine], for which the “NGF-like in vitro activity (ChAT increase, enhancement of NGF-stimulated neurite outgrowth and/or potentiation of NGF)” value was “especially potent activities”.

`Nc1ncc(Oc2ccc(Cl)cc2)c(N2CCN(C=O)CC2)n1` [2-amino-5-(4-chlorophenoxy)-4-(4-formylpiperazino)pyrimidine]: the “NGF-like in vitro activity (ChAT increase, enhancement of NGF-stimulated neurite outgrowth and/or potentiation of NGF)” value is “especially potent activities”. Regarding `CN1CCN(c2nc(N)ncc2Oc2ccc(Cl)cc2)CC1` [2-amino-5-(4-chlorophenoxy)-4-(4-methylpiperazino)pyrimidine], the “NGF-like in vitro activity (ChAT increase, enhancement of NGF-stimulated neurite outgrowth and/or potentiation of NGF)” value is recorded as “especially potent activities”.

Test system in the next data set: not given
Assay: not given
Settings: not given
Regarding `O=C(Nc1ccccc1)Nc1ncc(Oc2ccc(Cl)cc2)c(N2CCOCC2)n1`, the melting point was in the range of 229 to 231 °C. Consider `CN(C)c1nc(N)ncc1Cc1ccccc1`, for which the melting point fell in the range of 181 to 182 °C. Still for that read-out and setting: then `CC(C)(C)C(=O)OCCN1CCN(c2nc(N)ncc2Oc2ccc(Cl)cc2)CC1`, with 123 to 125 °C; and `Nc1ncc(Oc2ccc(Cl)cc2)c(N2CCNCC2)n1`, with 93 to 95 °C; and `Nc1ncc(Oc2ccc(Cl)cc2)c(N2CCN(CCO)CC2)n1`, with 121 to 123 °C. `Cl.Nc1ncc(Oc2ccc(Cl)cc2)c(NCCOCCO)n1` gave a melting point of 140 to 141 °C. Take `Nc1ncc(Oc2ccc(Cl)cc2)c(N2CCOCC2)n1`: the melting point was in the range of 138 to 140 °C. Take `CC(=O)N1CCN(c2nc(N)ncc2Oc2ccc(Cl)cc2)CC1`: the melting point was 153 to 157 °C.

Usually melting point stands for the temperature, or range, at which the solid turns liquid.
